Measurements taken from PubChem BioAssay AID1963869 (Molecular Pharmacology Branch, DTP, NCI, 2024).
pIC50: −log10 of the molar value.

Tested on: KRAS patient-derived spheroids with HUVEC/MSC, viability
Assay: Anticancer human tumor 323965-272-R-J2-PDC patient-derived pancreatic carcinoma cell line growth inhibition [KRAS2]
Conditions: for pIC50: curve of first compound; for viability, T/C: stronger effect = lower value
How it was run: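 Combination screen of spheroid viability in tumor-cell co-cultures with endothelial (HUVEC) and mesenchymal stem cell stroma. Each agent was tested in half-log dilutions, topping at clinical Cmax or at 10 microM without a known Cmax.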

[1] = second compound 0.1 µM, first compound 0.000316 µM
[2] = second compound 0.1 µM, first compound 0.001 µM
[3] = second compound 0.1 µM, first compound 0.00316 µM
[4] = second compound 0.1 µM, first compound 0.01 µM
[5] = second compound 0.1 µM, first compound 0.0316 µM
[6] = second compound 0.1 µM, first compound 0.1 µM
[7] = second compound 0.316 µM, first compound 0.000316 µM
[8] = second compound 0.316 µM, first compound 0.001 µM
[9] = second compound 0.316 µM, first compound 0.00316 µM
[10] = second compound 0.316 µM, first compound 0.01 µM
[11] = second compound 0.316 µM, first compound 0.0316 µM
[12] = second compound 0.316 µM, first compound 0.1 µM
[13] = second compound 1 µM, first compound 0.000316 µM
[14] = second compound 1 µM, first compound 0.001 µM
[15] = second compound 1 µM, first compound 0.00316 µM
[16] = second compound 1 µM, first compound 0.01 µM
[17] = second compound 1 µM, first compound 0.0316 µM
[18] = second compound 1 µM, first compound 0.1 µM
[19] = second compound 3.16 µM, first compound 0.000316 µM
[20] = second compound 3.16 µM, first compound 0.001 µM
[21] = second compound 3.16 µM, first compound 0.00316 µM
[22] = second compound 3.16 µM, first compound 0.01 µM
[23] = second compound 3.16 µM, first compound 0.0316 µM
[24] = second compound 3.16 µM, first compound 0.1 µM
[25] = second compound 10 µM, first compound 0.000316 µM
[26] = second compound 10 µM, first compound 0.001 µM
[27] = second compound 10 µM, first compound 0.00316 µM
[28] = second compound 10 µM, first compound 0.01 µM
[29] = second compound 10 µM, first compound 0.0316 µM
[30] = second compound 10 µM, first compound 0.1 µM
[31] = second compound 0.1 µM, first compound 0.316 µM
[32] = second compound 0.1 µM, first compound 1 µM
[33] = second compound 0.1 µM, first compound 3.16 µM
[34] = second compound 0.1 µM, first compound 10 µM
[35] = second compound 0.316 µM, first compound 0.316 µM
[36] = second compound 0.316 µM, first compound 1 µM
[37] = second compound 0.316 µM, first compound 3.16 µM
[38] = second compound 0.316 µM, first compound 10 µM
[39] = second compound 1 µM, first compound 0.316 µM
[40] = second compound 1 µM, first compound 1 µM
[41] = second compound 1 µM, first compound 3.16 µM
[42] = second compound 1 µM, first compound 10 µM
[43] = second compound 3.16 µM, first compound 0.316 µM
[44] = second compound 3.16 µM, first compound 1 µM
[45] = second compound 3.16 µM, first compound 3.16 µM
[46] = second compound 3.16 µM, first compound 10 µM
[47] = second compound 10 µM, first compound 0.316 µM
[48] = second compound 10 µM, first compound 1 µM
[49] = second compound 10 µM, first compound 3.16 µM
[50] = second compound 10 µM, first compound 10 µM
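Note: spheroids exposed to agents for 7 days.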
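Throughout, for viability, T/C: 100% = DMSO vehicle control viability.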

Cn1ncnc1[C@H]1c2n[nH]c(=O)c3cc(F)cc(c23)N[C@@H]1c1ccc(F)cc1 + C=CC(=O)N1CCN(c2nc(=O)n(-c3c(C)ccnc3C(C)C)c3nc(-c4c(O)cccc4F)c(F)cc23)C(C)C1
pIC50 (second compound 0.1 µM): < 7.00 | pIC50 (second compound 0.316 µM): < 7.00 | pIC50 (second compound 1 µM): < 7.00 | pIC50 (second compound 3.16 µM): < 7.00 | pIC50 (second compound 10 µM): 7.63 | viability, T/C [1]: 59.7% | viability, T/C [2]: 65.8% | viability, T/C [3]: 58.8% | viability, T/C [4]: 57.8% | viability, T/C [5]: 58.9% | viability, T/C [6]: 55.7% | viability, T/C [7]: 63% | viability, T/C [8]: 63.2% | viability, T/C [9]: 61.2% | viability, T/C [10]: 55% | viability, T/C [11]: 64% | viability, T/C [12]: 57.4% | viability, T/C [13]: 72.5% | viability, T/C [14]: 64.2% | viability, T/C [15]: 68.3% | viability, T/C [16]: 58.7% | viability, T/C [17]: 63.9% | viability, T/C [18]: 57% | viability, T/C [19]: 63.6% | viability, T/C [20]: 65.6% | viability, T/C [21]: 63.5% | viability, T/C [22]: 64.7% | viability, T/C [23]: 67.3% | viability, T/C [24]: 54.6% | viability, T/C [25]: 58.8% | viability, T/C [26]: 62.7% | viability, T/C [27]: 57.4% | viability, T/C [28]: 50.4% | viability, T/C [29]: 50.9% | viability, T/C [30]: 41.2%

CC1(C)CCC(CN2CCN(c3ccc(C(=O)NS(=O)(=O)c4ccc(NCC5CCOCC5)c([N+](=O)[O-])c4)c(Oc4cnc5[nH]ccc5c4)c3)CC2)=C(c2ccc(Cl)cc2)C1 + COc1cc2nc(C)nc(NC(C)c3cc(N)cc(C(F)(F)F)c3)c2cc1OC1CCOC1
pIC50 (second compound 0.1 µM): 5.82 | pIC50 (second compound 0.316 µM): 5.80 | pIC50 (second compound 1 µM): 5.89 | pIC50 (second compound 3.16 µM): 5.87 | pIC50 (second compound 10 µM): 6.23 | viability, T/C [5]: 76.6% | viability, T/C [6]: 80.4% | viability, T/C [31]: 67.8% | viability, T/C [32]: 72.2% | viability, T/C [33]: 11.2% | viability, T/C [34]: 2.78% | viability, T/C [11]: 67.7% | viability, T/C [12]: 77.3% | viability, T/C [35]: 75.2% | viability, T/C [36]: 71.5% | viability, T/C [37]: 16.8% | viability, T/C [38]: 3.87% | viability, T/C [17]: 76.2% | viability, T/C [18]: 84.2% | viability, T/C [39]: 84.3% | viability, T/C [40]: 60.3% | viability, T/C [41]: 12.5% | viability, T/C [42]: 2.67% | viability, T/C [23]: 87.4% | viability, T/C [24]: 80.6% | viability, T/C [43]: 84.7% | viability, T/C [44]: 65.1% | viability, T/C [45]: 6.04% | viability, T/C [46]: 2.28% | viability, T/C [29]: 80.7% | viability, T/C [30]: 79.9% | viability, T/C [47]: 61.1% | viability, T/C [48]: 41.6% | viability, T/C [49]: 3.41% | viability, T/C [50]: 1.41%

Cn1nccc1Nc1nccc(-c2cc3c(s2)C(C)(C)N(CCN2CCOCC2)C3=O)n1 + C=CC(=O)N1CCN(c2nc(OCC3CCCN3C)nc3c2CCN(c2cccc4cccc(C)c24)C3)CC1CC#N
pIC50 (second compound 0.0316 µM): 6.41 | pIC50 (second compound 0.1 µM): > 7.50 | pIC50 (second compound 0.316 µM): 7.23 | pIC50 (second compound 1 µM): > 7.50 | pIC50 (second compound 3.16 µM): > 7.50 | viability, T/C (second compound 0.0316 µM, first compound 0.0316 µM): 59.9% | viability, T/C (second compound 0.0316 µM, first compound 0.1 µM): 59.8% | viability, T/C (second compound 0.0316 µM, first compound 0.316 µM): 50.2% | viability, T/C (second compound 0.0316 µM, first compound 1 µM): 43.2% | viability, T/C (second compound 0.0316 µM, first compound 3.16 µM): 31.5% | viability, T/C (second compound 0.0316 µM, first compound 10 µM): 32.5% | viability, T/C [5]: 49.1% | viability, T/C [6]: 49.1% | viability, T/C [31]: 39.2% | viability, T/C [32]: 36.4% | viability, T/C [33]: 32.1% | viability, T/C [34]: 36.4% | viability, T/C [11]: 55.5% | viability, T/C [12]: 44.9% | viability, T/C [35]: 40% | viability, T/C [36]: 37.4% | viability, T/C [37]: 30.8% | viability, T/C [38]: 35.5% | viability, T/C [17]: 45.5% | viability, T/C [18]: 41.8% | viability, T/C [39]: 45.8% | viability, T/C [40]: 35.7% | viability, T/C [41]: 28.9% | viability, T/C [42]: 29.5% | viability, T/C [23]: 3.69% | viability, T/C [24]: 4.06% | viability, T/C [43]: 2.62% | viability, T/C [44]: 0.91% | viability, T/C [45]: 0.72% | viability, T/C [46]: 0.53%

CC(C)NCC(C(=O)N1CCN(c2ncnc3c2C(C)CC3O)CC1)c1ccc(Cl)cc1 (stereo not given) + COc1cc2nc(C)nc(NC(C)c3cc(N)cc(C(F)(F)F)c3)c2cc1OC1CCOC1
pIC50 (second compound 0.1 µM): 6.15 | pIC50 (second compound 0.316 µM): 6.27 | pIC50 (second compound 1 µM): 6.68 | pIC50 (second compound 3.16 µM): 6.91 | pIC50 (second compound 10 µM): 6.70 | viability, T/C [5]: 84.9% | viability, T/C [6]: 76% | viability, T/C [31]: 59.7% | viability, T/C [32]: 45.4% | viability, T/C [33]: 37.2% | viability, T/C [34]: 31.3% | viability, T/C [11]: 72.1% | viability, T/C [12]: 71.1% | viability, T/C [35]: 56.2% | viability, T/C [36]: 42.2% | viability, T/C [37]: 28% | viability, T/C [38]: 24.5% | viability, T/C [17]: 72.3% | viability, T/C [18]: 67.3% | viability, T/C [39]: 39.5% | viability, T/C [40]: 30.1% | viability, T/C [41]: 27.8% | viability, T/C [42]: 22.6% | viability, T/C [23]: 61.4% | viability, T/C [24]: 53% | viability, T/C [43]: 38.2% | viability, T/C [44]: 28.6% | viability, T/C [45]: 24.8% | viability, T/C [46]: 21.8% | viability, T/C [29]: 57% | viability, T/C [30]: 68.9% | viability, T/C [47]: 41.4% | viability, T/C [48]: 39% | viability, T/C [49]: 28.4% | viability, T/C [50]: 26.3%

CC(=O)Nc1cccc(-n2c(=O)n(C3CC3)c(=O)c3c(Nc4ccc(I)cc4F)n(C)c(=O)c(C)c32)c1 + C=CC(=O)N1CCN(c2nc(=O)n(-c3c(C)ccnc3C(C)C)c3nc(-c4c(O)cccc4F)c(F)cc23)C(C)C1
pIC50 (second compound 0.1 µM): 8.94 | pIC50 (second compound 0.316 µM): 9.01 | pIC50 (second compound 1 µM): 9.10 | pIC50 (second compound 3.16 µM): 8.92 | pIC50 (second compound 10 µM): 9.53 | viability, T/C (second compound 0.1 µM, first compound 0.0001 µM): 67.4% | viability, T/C [1]: 62.2% | viability, T/C [2]: 49.2% | viability, T/C [3]: 40.1% | viability, T/C [4]: 36.6% | viability, T/C [5]: 23.4% | viability, T/C (second compound 0.316 µM, first compound 0.0001 µM): 60.1% | viability, T/C [7]: 57.1% | viability, T/C [8]: 49.3% | viability, T/C [9]: 41.5% | viability, T/C [10]: 33.7% | viability, T/C [11]: 20.9% | viability, T/C (second compound 1 µM, first compound 0.0001 µM): 61.4% | viability, T/C [13]: 58.3% | viability, T/C [14]: 46.4% | viability, T/C [15]: 40.4% | viability, T/C [16]: 32.7% | viability, T/C [17]: 27% | viability, T/C (second compound 3.16 µM, first compound 0.0001 µM): 64.1% | viability, T/C [19]: 59.5% | viability, T/C [20]: 51.4% | viability, T/C [21]: 42.1% | viability, T/C [22]: 36.7% | viability, T/C [23]: 28.2% | viability, T/C (second compound 10 µM, first compound 0.0001 µM): 60.9% | viability, T/C [25]: 54.3% | viability, T/C [26]: 32.6% | viability, T/C [27]: 35.8% | viability, T/C [28]: 28.1% | viability, T/C [29]: 23.8%
